Tests used:
[1] = molecular target: T1, human neuropeptide Y5 receptor (Homo sapiens, UniProt Q15761); test: NPY5 HTS centrifugation assay: competition with 125I-PYY for binding to membranes of NPY5-transfected HEK293 cells; conditions: for % Inh @ 300 nM / inhibition at 0.3 µM: % inhibition of 125I-PYY binding at 300 nM compound; for % Inh @ 3 uM / inhibition at 3 µM: % inhibition of 125I-PYY binding at 3 uM compound; for inhibition at 0.3 µM: read-out: % Inh @ 300 nM
T1 construct: expressed in transfected cells; membranes
T1 sequence (Q15761 1-445): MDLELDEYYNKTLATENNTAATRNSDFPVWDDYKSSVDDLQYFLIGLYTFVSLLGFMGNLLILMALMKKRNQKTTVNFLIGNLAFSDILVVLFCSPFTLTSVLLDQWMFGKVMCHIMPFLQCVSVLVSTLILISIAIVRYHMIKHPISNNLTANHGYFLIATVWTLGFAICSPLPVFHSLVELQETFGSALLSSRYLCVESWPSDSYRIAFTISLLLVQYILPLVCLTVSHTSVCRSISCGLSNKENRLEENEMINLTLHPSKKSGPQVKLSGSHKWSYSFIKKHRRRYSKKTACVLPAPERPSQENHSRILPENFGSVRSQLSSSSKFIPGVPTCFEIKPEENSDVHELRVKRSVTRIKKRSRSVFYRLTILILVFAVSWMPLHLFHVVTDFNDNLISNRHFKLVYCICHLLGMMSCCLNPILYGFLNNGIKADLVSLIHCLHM
Protocol: NPY5 HTS Centrifugation Assay
The compounds described in this invention were evaluated for binding to the human neuropeptide Y5 receptor.
The human NPY5 receptor cDNA (Genbank Accession number U66275) was inserted into the vector pClneo (Invitrogen) and transfected into human embryonic kidney cells (HEK-293) via calcium phosphate method (Cullen 1987). Stably transfected cells were selected with G-418 (600 μg/mL). Stably transfected cells served as the source for the membranes for the NPY5 receptor binding assay.
NPY5-transfected HEK293 cells were grown to confluence in 150 cm^2 culture dishes. Cells were washed once with phosphate-buffered saline (Gibco Cat# 14040-133). Cells were then incubated in phosphate-buffered saline without calcium and without magnesium, supplemented with 2 mM EDTA. Cells were incubated for 10 minutes at room temperature and the cells were collected by repetitive pipeting. Cells were formed into pellets and then frozen at −80° C. until needed. Frozen pellets were homogenized with a polytron at full speed for 12 seconds in a homogenization buffer (20 mM Tris HCl, 5 mM EDTA, pH 7.4). Homogenates were centrifuged for 5 minutes at 4° C. at 200 g. Supernatants were transferred to corex tubes and centrifuged for 25 minutes at 28,000 g. Pellets were re-suspended in Binding (20 mM HEPES, 10 mM NaCl, 0.22 mM KH2PO4, 1.3 mM CaCl2, 0.8 mM MgSO4, pH 7.4). Membranes were kept on ice until use.
A competition binding assay, known to those skilled in the art, was used in which compounds of formula A compete with ^125I-PYY for binding to cell membranes. In simple terms, the less ^125I-PYY bound to the membranes implies that a compound is a good inhibitor (competitor). Bound ^125I-PYY is determined by centrifugation of membranes, aspirating supernatant, washing away residual ^125I-PYY and subsequently counting the bound sample in a gcounter.
Compounds to be tested were prepared as 10× stocks in binding buffer and added first to assay tubes (RIA vials, Sarstedt). Twenty (20) μL of each 10× compound stock is pipeted into vials and 80 μL of ^125I-PYY (NEN catalog number NEX240), which has been diluted to a concentration of 200 pM in 0.25% BSA in binding buffer, is added to the compound tubes (final concentration of ^125I-PYY is 80 pM). To each tube is added 100 μL of membranes and the mixture is agitated by pipeting 2 times. Samples are incubated for 1 hr at room temperature. Aluminum cast plates (Sarstedt) containing the vials are then centrifuged 10 minutes at 3200 rpm in a Sorvall RT6000. Supernatant is then aspirated. To each vial 400 μL PBS is added and this is then aspirated again. Vials are then put in carrier polypropylene 12×75 tube and counted in gamma counter (Packard). Non-specific binding is determined in the presence of 300 nM NPY. Percent inhibition of ^125I-PYY binding is calculated by subtracting non-specific binding from the test samples (compound (I)), taking these counts and dividing by total binding, and multiplying by 100. Inhibitory concentration values (IC50) of compounds that show appreciable inhibition of ^125I-PYY binding are calculated by obtaining percent inhibition of ^125I-PYY binding values at different concentrations of the test compound, and using a graphing program such as GraphPad Prism (San Diego, Calif.) to calculate the concentration of test compound that inhibits fifty-percent of ^125I-PYY binding (Table 4).

Food-Deprived Rats = test: Rodent feeding model: measurement of food intake in food-deprived rats; type: in vivo, Male Long-Evans rats; conditions: 10 mg/kg i.p.
Text: Measurement of Food Intake in Food-Deprived Rats
Male Long-Evans rats (180-200 grams) are housed individually and are maintained on once-a-day feeding schedule (i.e., 10 a.m. until 4 p.m.) for five days following quarantine to allow the animals to acclimate to feeding on powdered chow (#5002 PMI Certified Rodent Meal) during the allotted time. The chow is made available in a open jar, anchored in the cage by a wire, with a metal follower covering the food to minimize spillage. Water is available ad-libitum.
Animals are fasted for 18 hours prior to testing. At the end of the fasting period, animal are administered either compounds of the invention or vehicle. Vehicle and test compounds are administered either orally (5 mL/kg) 60 minutes prior to the experiment, or 30 minutes prior when given subcutaneously (1 mL/kg) or intraperitoneally (1 mL/kg). Compounds of the invention are administered orally as a suspension in aqueous 0.5% methylcellulose-0.4% Tween 80, or intraperitoneally as a solution or suspension in PEG 200; compound concentrations typically range from 1 mg/kg to 100 mg/kg, preferably from 10-30 mg/kg. Food intake is measured at 2, 4, and 6 hours after administration by weighing the special jar containing the food before the experiment and at the specified times. Upon completion of the experiment, all animals are given a one-week washout period before retesting.
Percent reduction of food consumption is calculated subtracting the grams of food consumed by the treated group from the grams of food consumed by the control group divided by the grams of food consumed by the control group, multiplied by 100. A negative value indicates a reduction in food consumption and a positive value indicates an increase in food consumption. [formula]

inhibition at 0.3 µM [1] [%] | inhibition at 3 µM [1] [%] | Compound | also measured
– | – | COc1ccc2c(c1)CC[C@@H]1N=C(NC(=O)[C@H]3CC[C@H](CNS(=O)(=O)c4ccccc4)CC3)C[C@H]21 (relative stereo) [Compound 7, trans-4-[[(Phenylsulfonyl)amino]methyl]-N-(cis-3a,4,5,9b-tetrahydro-7-methoxy-1H-benz[e]indol-2-yl)cyclohexanecarboxamide] | % Inh @ 300 nM ([1]; 0.3 µM): 82%; % Inh @ 3 uM ([1]; 3 µM): 98%
85 | 98 | COc1ccc2c(c1)CC[C@@H]1N=C(NC[C@H]3CC[C@H](CNS(=O)(=O)c4ccccc4)CC3)C[C@H]21 (relative stereo) [Compound 8, N-[[trans-4-[[(cis-3a,4,5,9b-tetrahydro-7-methoxy-1H-benz[e]indol-2-yl)amino]methyl]cyclohexyl]methyl]benzenesulfonamide] | Food Consumption (avg. grams) 0-2 h (Food-Deprived Rats; 0-2 h, 18 h fasted rats): 4.38 g; Food Consumption 0-2 h (% chg.) (Food-Deprived Rats; 0-2 h, change vs vehicle, negative = reduction): (−52%); Food Consumption (avg. grams) 0-4 h (Food-Deprived Rats; 0-4 h, 18 h fasted rats): 7.88 g; Food Consumption 0-4 h (% chg.) (Food-Deprived Rats; 0-4 h, change vs vehicle, negative = reduction): (−38%); Food Consumption (avg. grams) 0-6 h (Food-Deprived Rats; 0-6 h, 18 h fasted rats): 12.00 g; Food Consumption 0-6 h (% chg.) (Food-Deprived Rats; 0-6 h, change vs vehicle, negative = reduction): (−43%); Food Consumption (avg. grams) 2-6 h (Food-Deprived Rats; 2-6 h, 18 h fasted rats): 7.63 g; Food Consumption 2-6 h (% chg.) (Food-Deprived Rats; 2-6 h, change vs vehicle, negative = reduction): (−37%)
97 | 97 | O=C(NC1=N[C@H]2CCc3cc(O)ccc3[C@H]2C1)[C@H]1CC[C@H](CNS(=O)(=O)c2ccccc2)CC1 (relative stereo) [Compound 9, trans-4-[[(Phenylsulfonyl)amino]methyl]-N-(cis-3a,4,5,9b-tetrahydro-7-hydroxy-1H-benz[e]indol-2-yl)cyclohexanecarboxamide] | –
80 | 100 | O=C(NC1=N[C@H]2CCc3ccccc3[C@H]2C1)[C@H]1CC[C@H](CNS(=O)(=O)c2ccccc2)CC1 (relative stereo) [Compound 13, trans-4-[[(Phenylsulfonyl)amino]methyl]-N-(cis-3a,4,5,9b-tetrahydro-1H-benz[e]indol-2-yl)cyclohexanecarboxamide] | –
89 | 93 | O=S(=O)(NC[C@H]1CC[C@H](CNC2=N[C@H]3CCc4ccccc4[C@H]3C2)CC1)c1ccccc1 (relative stereo) [Compound 14, N-[[trans-4-[[(cis-3a,4,5,9b-tetrahydro-1 H-benz[e]indol-2-yl)amino]methyl]cyclohexyl]methyl]benzenesulfonamide] | –
89 | 100 | O=C(NC1=N[C@H]2CCc3cc(F)ccc3[C@H]2C1)[C@H]1CC[C@H](CNS(=O)(=O)c2ccccc2)CC1 (relative stereo) [Compound 15, trans-4-[[(Phenylsulfonyl)amino]methyl]-N-(cis-3a,4,5,9b-tetrahydro-7-fluoro-1H-benz[e]indol-2-yl)cyclohexanecarboxamide] | –
– | – | O=S(=O)(NC[C@H]1CC[C@H](CNC2=N[C@H]3CCc4cc(F)ccc4[C@H]3C2)CC1)c1ccccc1 (relative stereo) [Compound 16, N-[[trans-4-[[(cis-3a,4,5,9b-tetrahydro-7-fluoro-1H-bnz[ ]indol-2-yl)amino]methyl]cyclohexyl]methyl]benzenesulfonamide] | % Inh @ 300 nM [1]: 76%; % Inh @ 3 uM [1]: 100%
86 | 107 | O=C(NC1=N[C@H]2CCc3cc(Cl)ccc3[C@H]2C1)[C@H]1CC[C@H](CNS(=O)(=O)c2ccccc2)CC1 (relative stereo) [Compound 17, trans-4-[[(Phenylsulfonyl)amino]methyl]-N-(cis-3a,4,5,9b-tetrahydro-7chloro-1H-benz[e]indol-2-yl)cyclohexanecarboxamide] | –
90 | 109 | O=S(=O)(NC[C@H]1CC[C@H](CNC2=N[C@H]3CCc4cc(Cl)ccc4[C@H]3C2)CC1)c1ccccc1 (relative stereo) [Compound 18, N-[[trans-4-[[(cis-3a,4,5,9b-tetrahydro-7-chloro-1H-benz[e]indol-2-yl)amino]methyl]cyclohexyl]methyl]benzenesulfonamide] | –
80 | 99 | COc1ccc2c(c1)CC[C@@H]1N=C(NC(=O)[C@H]3CC[C@H](CNS(=O)(=O)c4ccccc4)CC3)C[C@H]21 (relative stereo) [Compound 19, trans-4-[[(Phenylsulfonyl)amino]methyl]-N-(cis-3a,4,5,9b-tetrahydro-7-methoxy-1H-benz[e]indol-2-yl)cyclohexanecarboxamide] | –
48 | 85 | O=C(CN1CCC(n2c(=O)[nH]c3ccccc32)CC1)NC1=N[C@@H]2CCc3ccccc3[C@@H]2C1 [Compound 11] | –
– | – | COc1ccc2c(c1)CCC1N=C(NCCN3CCC(n4c(=O)[nH]c5ccccc54)CC3)CC21 (stereo not drawn) [Compound 12] | % Inh @ 300 nM [1]: 9%; % Inh @ 3 uM [1]: 53%
0 | 50 | COc1ccc2c(c1)CCC1NC(N)(C(=O)CN3CCC(n4c(=O)[nH]c5ccccc54)CC3)CC21 (stereo not drawn) [Compound 20, 2-[[4-(2,3-Dihydro-2-oxo-1H-benzimidazol-1-yl)-1-piperidinyl]acetyl]-[3a,4,5,9b-tetrahydro-7-methoxy-1H-benzo[e]indol-2-yl]-amine] | –
20 | 78 | NC1(C(=O)CN2CCC(n3c(=O)[nH]c4ccccc43)CC2)CC2c3ccc(O)cc3CCC2N1 (stereo not drawn) [Compound 21, 2-[[4-(2,3-Dihydro-2-oxo-1H-benzimidazol-1-yl)-1-piperidinyl]acetyl]-[3a,4,5,9b-tetrahydro-7-hydroxy-1H-benzo[e]indol-2-yl]-amine] | –

From patent US6841552B1, “3a,4,5,9b-tetrahydro-1H-benz[e]indol-2-yl amine-derived neuropeptide Y receptors ligands useful in the treatment of obesity and other disorders” (Ortho-McNeil Pharmaceutical, Inc., priority 1999, dated 2005)
